Source: ChEMBL document CHEMBL1201862, “PubChem BioAssay data set” (2004)
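Protocol summary: plate cells (96-well), add compound at 5 concentrations, incubate 48 h, interpolate endpoints linearly. The concentration for 50% growth inhibition is given as GI50.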 Active and inactive are the calls of the source. No stated cut-off is given here; in the data, active = GI50 up to about 1.1 µM and inactive = higher.

Tests used:
Experiment in all cases: NCI-60 cell line screen, 48 h
A498 = tested on: A498
ACHN = tested on: ACHN
CAKI-1 = tested on: CAKI-1
CCRF-CEM = tested on: CCRF-CEM
COLO 205 = tested on: COLO 205
DLD-1 = tested on: DLD-1
DMS-114 = tested on: DMS-114
EKVX = tested on: EKVX
HCC 2998 = tested on: HCC 2998
HCT-116 = tested on: HCT-116
HCT-15 = tested on: HCT-15
HL-60 = tested on: HL-60
HOP-62 = tested on: HOP-62
HOP-92 = tested on: HOP-92
HT-29 = tested on: HT-29
K562 = tested on: K562
KM-20L2 = tested on: KM-20L2
KM12 = tested on: KM12
LXFL 529 = tested on: LXFL 529
M14 = tested on: M14
M19-MEL = tested on: M19-MEL
MOLT-4 = tested on: MOLT-4
Malme-3M = tested on: Malme-3M
NCI-H226 = tested on: NCI-H226
NCI-H23 = tested on: NCI-H23
NCI-H460 = tested on: NCI-H460
NCI-H522 = tested on: NCI-H522
OVCAR-3 = tested on: OVCAR-3
OVCAR-4 = tested on: OVCAR-4
OVCAR-5 = tested on: OVCAR-5
OVCAR-8 = tested on: OVCAR-8
RPMI-8226 = tested on: RPMI-8226
SF-268 = tested on: SF-268
SF-295 = tested on: SF-295
SK-MEL-28 = tested on: SK-MEL-28
SK-MEL-2 = tested on: SK-MEL-2
SK-MEL-5 = tested on: SK-MEL-5
SK-OV-3 = tested on: SK-OV-3
SN12C = tested on: SN12C
SNB-19 = tested on: SNB-19
SNB-75 = tested on: SNB-75
SR = tested on: SR
SW-620 = tested on: SW-620
TK-10 = tested on: TK-10
U-251 = tested on: U-251
UACC-257 = tested on: UACC-257
UACC-62 = tested on: UACC-62
UO-31 = tested on: UO-31
786-0 = tested on: 786-0
A549 = tested on: A549
BT-549 = tested on: BT-549
DU-145 = tested on: DU-145
Hs-578T = tested on: Hs-578T
IGROV-1 = tested on: IGROV-1
LOX IMVI = tested on: LOX IMVI
MCF7 = tested on: MCF7
MDA-MB-231 = tested on: MDA-MB-231
MDA-MB-435 = tested on: MDA-MB-435
MDA-N = tested on: MDA-N
NCI/ADR-RES = tested on: NCI/ADR-RES
PC-3 = tested on: PC-3
RXF 393 = tested on: RXF 393
SF-539 = tested on: SF-539
T47D = tested on: T47D

O=C(/C=C/CC(O)(c1ccccc1)c1ccccc1)Nc1ccccc1Cl
GI50 (A498): > 100 µM (inactive)
GI50 (ACHN): > 100 µM (inactive)
GI50 (CAKI-1): > 100 µM (inactive)
GI50 (CCRF-CEM): > 100 µM (inactive)
GI50 (COLO 205): > 100 µM (inactive)
GI50 (DLD-1): > 100 µM (inactive)
GI50 (DMS-114): > 100 µM (inactive)
GI50 (EKVX): > 100 µM (inactive)
GI50 (HCC 2998): > 100 µM (inactive)
GI50 (HCT-116): > 100 µM (inactive)
GI50 (HCT-15): > 100 µM
GI50 (HL-60): > 100 µM (inactive)
GI50 (HOP-62): > 100 µM (inactive)
GI50 (HOP-92): > 100 µM (inactive)
GI50 (HT-29): > 100 µM (inactive)
GI50 (K562): > 100 µM (inactive)
GI50 (KM-20L2): > 100 µM (inactive)
GI50 (KM12): > 100 µM (inactive)
GI50 (LXFL 529): > 100 µM (inactive)
GI50 (M14): > 100 µM (inactive)
GI50 (M19-MEL): > 100 µM (inactive)
GI50 (MOLT-4): > 100 µM (inactive)
GI50 (Malme-3M): 45.3 µM (inactive)
GI50 (NCI-H226): > 100 µM (inactive)
GI50 (NCI-H23): > 100 µM (inactive)
GI50 (NCI-H460): > 100 µM (inactive)
GI50 (NCI-H522): > 100 µM (inactive)
GI50 (OVCAR-3): > 100 µM (inactive)
GI50 (OVCAR-4): > 100 µM (inactive)
GI50 (OVCAR-5): > 100 µM (inactive)
GI50 (OVCAR-8): > 100 µM (inactive)
GI50 (RPMI-8226): > 100 µM (inactive)
GI50 (SF-268): > 100 µM (inactive)
GI50 (SF-295): > 100 µM (inactive)
GI50 (SK-MEL-28): > 100 µM (inactive)
GI50 (SK-MEL-2): > 100 µM (inactive)
GI50 (SK-MEL-5): > 100 µM (inactive)
GI50 (SK-OV-3): > 100 µM (inactive)
GI50 (SN12C): > 100 µM (inactive)
GI50 (SNB-19): > 100 µM (inactive)
GI50 (SNB-75): 28.1 µM (inactive)
GI50 (SR): > 100 µM (inactive)
GI50 (SW-620): > 100 µM (inactive)
GI50 (TK-10): > 100 µM (inactive)
GI50 (U-251): > 100 µM (inactive)
GI50 (UACC-257): > 100 µM (inactive)
GI50 (UACC-62): > 100 µM (inactive)
GI50 (UO-31): > 100 µM (inactive)

Cc1sc2ncnc(NCCc3ccccc3)c2c1C
GI50 (786-0): 16 µM (inactive)
GI50 (A498): 11.1 µM (inactive)
GI50 (A549): 14.7 µM (inactive)
GI50 (ACHN): 12.4 µM (inactive)
GI50 (BT-549): 15.2 µM (inactive)
GI50 (CAKI-1): 7.53 µM (inactive)
GI50 (CCRF-CEM): 13 µM (inactive)
GI50 (COLO 205): 11 µM (inactive)
GI50 (DU-145): 18.8 µM (inactive)
GI50 (EKVX): 1.68 µM (inactive)
GI50 (HCC 2998): 15.1 µM (inactive)
GI50 (HCT-116): 6.04 µM (inactive)
GI50 (HCT-15): 21.5 µM
GI50 (HL-60): 9.02 µM (inactive)
GI50 (HOP-62): 12.8 µM (inactive)
GI50 (HOP-92): 0.94 µM (active)
GI50 (HT-29): 14.6 µM (inactive)
GI50 (Hs-578T): 20.7 µM (inactive)
GI50 (IGROV-1): 12.7 µM (inactive)
GI50 (K562): 2 µM (inactive)
GI50 (KM12): 13.4 µM (inactive)
GI50 (LOX IMVI): 4.82 µM (inactive)
GI50 (M14): 18.1 µM (inactive)
GI50 (MCF7): 12.5 µM (inactive)
GI50 (MDA-MB-231): 14.6 µM (inactive)
GI50 (MDA-MB-435): 13.7 µM (inactive)
GI50 (MDA-N): 10.1 µM (inactive)
GI50 (MOLT-4): 14.9 µM (inactive)
GI50 (Malme-3M): 17.5 µM (inactive)
GI50 (NCI-H226): 11.6 µM (inactive)
GI50 (NCI-H23): 10.9 µM (inactive)
GI50 (NCI-H460): 8.99 µM (inactive)
GI50 (NCI-H522): 8.59 µM (inactive)
GI50 (NCI/ADR-RES): 6.22 µM (inactive)
GI50 (OVCAR-3): 14.2 µM (inactive)
GI50 (OVCAR-4): 13.6 µM (inactive)
GI50 (OVCAR-5): 15.4 µM (inactive)
GI50 (OVCAR-8): 11.8 µM (inactive)
GI50 (PC-3): 17.3 µM (inactive)
GI50 (RPMI-8226): 10.2 µM (inactive)
GI50 (RXF 393): 12.3 µM (inactive)
GI50 (SF-268): 21.8 µM (inactive)
GI50 (SF-295): 4.78 µM (inactive)
GI50 (SF-539): 15 µM (inactive)
GI50 (SK-MEL-28): 17.8 µM (inactive)
GI50 (SK-MEL-2): 14.8 µM (inactive)
GI50 (SK-MEL-5): 1.33 µM (inactive)
GI50 (SK-OV-3): 22.6 µM (inactive)
GI50 (SN12C): 10.6 µM (inactive)
GI50 (SNB-19): 23.7 µM (inactive)
GI50 (SNB-75): 16.4 µM (inactive)
GI50 (SR): 0.579 µM (active)
GI50 (SW-620): 25.5 µM (inactive)
GI50 (T47D): 2.29 µM (inactive)
GI50 (TK-10): 11.4 µM (inactive)
GI50 (U-251): 11.6 µM (inactive)
GI50 (UACC-257): 1.04 µM (active)
GI50 (UACC-62): 11.9 µM (inactive)
GI50 (UO-31): 15.6 µM (inactive)
